Patent US7030133B2, “Inhibitors of formation of advanced glycation endproducts (AGEs)” (City of Hope, priority 1999, dated 2006)

Assays:
BSA = test: BSA-Glucose assay (glucose-mediated development of fluorescence of BSA); assay type: biochemical; settings: BSA 50 mg/mL, 800 mM glucose, 7 days at 37° C., fluorescence 330/410 nm; compound concentration not stated
Experimental: This test is used to evaluate the ability of the inhibitors to inhibit glucose-mediated development of fluorescence of BSA (Ikeda et al., 1996). Triplicate samples of BSA (fraction V, essentially fatty acid free, low endotoxin) from Sigma 50 mg/mL and 800 mM glucose (144 mg/mL) in […] phosphate buffer pH 7.4 containing NaN3 0.2 g/L was incubated under aseptic conditions at 37° C. for 7 days in the presence or absence of various concentrations of the compounds. After 7 days of incubation each sample was examined for the development of specific fluorescence (excitation, 330 nm; emission, 410 nm). The % inhibition of AGE formation in the test sample versus control was calculated for each inhibitor compound. Aminoguanidine (50 mM) was used as a positive control.
This method assays for inhibitors of late glycation and AGE formation (post-Amadori).

[1] = tested on: hemoglobin (HbAlC formation); test: Hemoglobin-δ-Gluconolactone (δ-Glu) assay (early stage glycation, HbAlC formation in whole blood); assay type: cell-based, human; settings: 1 millimole/L compound, 50 millimoles/L δ-Glu, whole blood from normal volunteers, 16 hours at 37° C.
Experimental: The δ-Glu assay is a specific method for investigation of inhibitors of the early stage of glycation. Evaluation of early glycation products (Amadori) formation on hemoglobin (HbAlC) is performed by incubating red blood cells with an oxidized form of glucose in the presence and the absence of the inhibitor compound followed by determination of HbAlC in the test versus the control (Rahbar and Nadler., 1999). […] By contrast, glucose requires weeks for an equivalent reaction to occur. We have used this finding to devise an assay method to measure early stage glycation of hemoglobin (Amadori product) and an assay to evaluate the ability of an inhibitor to inhibit HbAlC formation. Briefly, fresh blood was drawn in potassium-EDTA and prepared for incubation within 30 minutes of collection by mixing 200 μL of blood with 40 μL of either phosphate buffered-saline (PBS), pH 7.4, alone, PBS containing 50 millimoles/L δ-Glu (Sigma), or PBS containing 50 millimoles/L δ-Glu plus 1 millimole/L inhibitor. After incubation for 16 hours at 37° C., the percentage of glycated hemoglobin present was determined. The percentage of glycated Hb (HbAlC) was determined using a dedicated ion-exchange HPLC system (BIORAD DIAMAT). Blood samples were analyzed in triplicate. The % inhibition of HbAlC formation by the compound was calculated according to the following formula: ((B−C)/(B−A))×100 where A is HbAlC concentration in the baseline control tube not treated with δ-Glu, B is the HbAlC concentration in blood incubated with δ-Glu, C is the HbAlC content of the test tube treated both with δ-Glu and the inhibitor compound.
The amount of (HbAlC) formation using δ-Glu treated whole blood from normal volunteers using 1 millimole/L of the compounds was calculated. Various inhibitors (compounds LR103-LR115) show different levels of HbAlC depending on their inhibitory potencies.

[2] = N-Acetyl-Glycyl-Lysine Methyl Ester (G.K. peptide)-Ribose assay; assay type: biochemical; settings: 24 hours at 37° C.; for Percent Inhibition in the G.K.-Ribose Assay: 1 millimole/L compound, fluorescence 330/415 nm
Experimental: Evaluation of the late glycation products (AGEs), and AGE-inhibition by the new inhibitor compounds was tested by incubation of G.K. peptide in ribose in the presence or the absence of the agent, followed by determination of chromophores generated in the course of glycation and AGE formation through determination of their specific fluorescence. The Nagaraj et al. (1996) method used to evaluate the ability of the compounds of the present invention to inhibit the crosslinking of N-acetylglycyl-lysine methyl ester in the presence of ribose was as follows: Stock Solutions: • 0.5 M sodium phosphate buffer pH 7.4 containing NaN3 0.2 g/L • GK peptide (Sigma) 80 mg/mL in 0.5 M sodium phosphate buffer pH 7.4 • Ribose 800 mM (120 mg/mL) in 0.5 M phosphate buffer Triplicate samples of equal volumes (0.1 mL) of the 3 stock solutions were mixed together, filtered through a 0.2 micron filter (Coming) and incubated under aseptic conditions for 24 hours at 37° C. The inhibitor compounds were added to a final concentration of 1 millimole/L. At the end of the incubation period, samples were analyzed for their specific fluorescence (excitation, 330 nm; emission, 415 nm). The % inhibition by different concentrations of inhibitor was calculated as described above. Aminoguanidine was used at 50 mM as a positive control.

[3] = Inhibition of copper-catalyzed autooxidation of ascorbic acid (copper-chelating activity); assay type: physicochemical; settings: read-out: IC50, concentration that inhibited the rate of ascorbic acid oxidation by 50% (copper-chelating activity), FIGS. 3 and 4
Experimental: This assay was performed according to Price et al. (2001). The kinetics of oxidation of ascorbic acid (AA) at the rate of decrease in absorbance at 265 nm was measured. For studies with AGE inhibitors, the ascorbic acid was added to initiate the reaction. Aliquots were removed at 0, 15, 30, 45, and 60 minutes and transferred to autoinjector vials containing DPTA. Samples were analyzed by reverse phase HPLC, (Waters 2690 Millenium 32 Separator Module), equipped with an auto-injector using Xterra™ RP18 column (250×4.6 mm, 5 μm). Solvents and gradient were all used as described in Price et al. (2001). The concentration of each inhibitor compound that inhibited the rate of AA oxidation by 50% was calculated using Prism (Graph Pad-San Diego).

For “4,4′-bis [(methyleneoxyethyleneamino)phenoxy]isobutyric acid [LR112]”, the “Percent Inhibition in the BSA-Glucose Assay” value (BSA) was 44.7%, the “Percent Inhibition of HbAlC formation in the δ-Glu Assay” value (shortened to “Percent Inhibition … in the δ-Glu Assay”) [1] was 43.2% and the “Percent Inhibition in the G.K.-Ribose Assay” value [2] was 21%.

With “4-[(3,5-dichlorophenyureido)phenoxyisobutyrylamido]-2-hydroxybenzene-4-carboxylic acid [LR114]” the “Percent Inhibition in the BSA-Glucose Assay” value (BSA) was 22.7%, the “Percent Inhibition … in the δ-Glu Assay” value [1] was 45.4% and the “Percent Inhibition in the G.K.-Ribose Assay” value [2] was 7.2%.

With `N=C(N)NN` [AG, aminoguanidine, reference compound] the “Percent Inhibition in the G.K.-Ribose Assay (positive control)” value ([2]; Aminoguanidine 50 mM) was 67%.

With `CC(C)(Oc1ccc(N(Cc2ccc(Cl)cc2)C(=O)Nc2ccc(Cl)c(Cl)c2)cc1)C(=O)O` [LR103, 1-[(4-chlorobenzyl)-3-(3,4-dichlorophenylureido)]-4-phenoxyisobutyric acid] the “Percent Inhibition in the BSA-Glucose Assay” value (BSA) was 4%, the IC50 [3] was roughly 75 µM and the “Percent Inhibition … in the δ-Glu Assay” value [1] was 43.2%. For the same compound, the “Percent Inhibition in the G.K.-Ribose Assay” value [2] was 14%.

With `CC(C)(Oc1ccc(NC(=O)Nc2ccc(F)c(Cl)c2)cc1)C(=O)Nc1ccccc1C(=O)O` [LR104, 4-(4-fluoro-3-chlorophenylurido)phenoxyisobutyrylamidophenyl-2-carboxylic acid] the “Percent Inhibition in the BSA-Glucose Assay” value (BSA) was 18.4%, the IC50 [3] was roughly 100 µM and the “Percent Inhibition … in the δ-Glu Assay” value [1] was 47.7%. For the same compound, the “Percent Inhibition in the G.K.-Ribose Assay” value [2] was 0%.

In the case of `CC(C)(Oc1ccc(N(Cc2c(F)cccc2Cl)C(=O)Nc2ccc(Cl)c(Cl)c2)cc1)C(=O)O` [LR105, 1[(2-fluoro-6-chlorobenzyl)-3-(3,4-dichlorophenyureido)]-4-phenoxyisobutyric acid], the “Percent Inhibition in the BSA-Glucose Assay” value (BSA) is reported as 21.5%, the “Percent Inhibition … in the δ-Glu Assay” value [1] is reported as 38.6% and the “Percent Inhibition in the G.K.-Ribose Assay” value [2] is reported as 12%.

With `CC(C)(Oc1ccc(NCc2ccc(Cl)cc2)cc1)C(=O)O` [LR106, 4-(4-chlorobenzylaminophenoxyisobutyric)acid] the “Percent Inhibition in the BSA-Glucose Assay” value (BSA) was 14.4%, the “Percent Inhibition … in the δ-Glu Assay” value [1] was 40.9% and the “Percent Inhibition in the G.K.-Ribose Assay” value [2] was 10.5%.

In the case of `CC(C)(Oc1ccc(NC(=O)Nc2ccc(NC(=O)Nc3ccc(OC(C)(C)C(=O)O)cc3)c(Cl)c2)cc1)C(=O)O` [LR107, 2-chlorobenzene-1,4-bis(4-ureidophenoxyisobutyric acid)], the “Percent Inhibition in the BSA-Glucose Assay” value (BSA) is reported as 28.7%, the “Percent Inhibition … in the δ-Glu Assay” value [1] is reported as 43.2% and the “Percent Inhibition in the G.K.-Ribose Assay” value [2] is reported as 19.5%.

In the case of `CC(C)(Oc1ccc(N(Cc2ccc(Cl)cc2)C(=O)Nc2cc(Cl)cc(Cl)c2)cc1)C(=O)O` [LR108, 1-[(4-chlorobenzyl)-3-(3,5-dichlorophenyureido)]-4-phenoxyisobutyric acid], the “Percent Inhibition in the BSA-Glucose Assay” value (BSA) is reported as 31.1%, the “Percent Inhibition … in the δ-Glu Assay” value [1] is reported as 2.0% and the “Percent Inhibition in the G.K.-Ribose Assay” value [2] is reported as 19.7%.

In the case of `CC(C)(Oc1ccc(N(Cc2c(F)cccc2Cl)C(=O)Nc2c(F)cccc2Cl)cc1)C(=O)O` [LR109, 1-[(2-fluoro-6-chlorobenzyl)-3-(2-fluoro-6-chlorophenylureido)]-4-phenoxyisobutyric acid], the “Percent Inhibition in the BSA-Glucose Assay” value (BSA) is reported as 34.6%, the “Percent Inhibition … in the δ-Glu Assay” value [1] is reported as 56.8% and the “Percent Inhibition in the G.K.-Ribose Assay” value [2] is reported as 9.5%.

In the case of `CC(C)(Oc1ccc(NC(=O)c2c3c(nc4ccccc24)CCCC3)cc1)C(=O)O` [LR110, 4-(1,2,3,4-tetrahydroacridine-9-carboxamidophenoxyisobutyric)acid], the “Percent Inhibition in the BSA-Glucose Assay” value (BSA) is reported as 28.5%, the “Percent Inhibition … in the δ-Glu Assay” value [1] is reported as 38.6% and the “Percent Inhibition in the G.K.-Ribose Assay” value [2] is reported as 11%.

For `O=C(O)COc1cccc2cccnc12` [LR111, 8-quinolinoxy acetic acid], the “Percent Inhibition in the BSA-Glucose Assay” value (BSA) was 21.6%, the “Percent Inhibition … in the δ-Glu Assay” value [1] was 38.6% and the “Percent Inhibition in the G.K.-Ribose Assay” value [2] was 9.7%.

In the case of `CC(=O)N[C@@H](Cc1c[nH]cn1)C(=O)Oc1cccc2cccnc12` [LR113, L-8-quinolinolyl(acetylhistidine)], the “Percent Inhibition in the BSA-Glucose Assay” value (BSA) is reported as 21.5%, the “Percent Inhibition … in the δ-Glu Assay” value [1] is reported as 36.3% and the “Percent Inhibition in the G.K.-Ribose Assay” value [2] is reported as 11%.

With `CC(C)(Oc1ccc(NC(=O)Nc2cc(Cl)cc(Cl)c2)cc1)C(=O)N[C@@H](Cc1ccccc1)C(=O)O` [LR115, L, α-4-[(3,5-dichlorophenyureido)phenoxyisobutyrylamido]phenylalanine] the “Percent Inhibition in the BSA-Glucose Assay” value (BSA) was 22.3%, the “Percent Inhibition … in the δ-Glu Assay” value [1] was 47.7% and the “Percent Inhibition in the G.K.-Ribose Assay” value [2] was 0%.
